According to publication PMC10939098 (Emerging Microbes & Infections, 2024):
Residue numbers refer to the chain shown, from its start. Values after ≈ are worked out from the molar mass of the structure shown.

What was measured:
PER-1 [1] = target: T1, PER-1 (Pseudomonas aeruginosa, UniProt P37321); experiment: Direct competition inhibition assay with nitrocefin, PER-1; type: biochemical
T1 sequence (P37321 27-308): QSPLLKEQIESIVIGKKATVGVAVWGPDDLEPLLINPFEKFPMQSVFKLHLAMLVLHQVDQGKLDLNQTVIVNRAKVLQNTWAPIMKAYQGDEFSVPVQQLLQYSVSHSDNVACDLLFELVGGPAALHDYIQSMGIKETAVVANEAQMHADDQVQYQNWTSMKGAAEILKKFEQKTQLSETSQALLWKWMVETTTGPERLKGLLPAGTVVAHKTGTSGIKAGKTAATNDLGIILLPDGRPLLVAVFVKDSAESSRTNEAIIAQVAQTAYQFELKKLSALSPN

PER-4 [2] = target: T2, PER-4 (Pseudomonas aeruginosa, UniProt P37321, S135T); experiment: Direct competition inhibition assay with nitrocefin, PER-4; type: biochemical; conditions: for fold higher IC50 value against PER-4 than against wild-type PER-1: PER-4 vs PER-1
T2 sequence (P37321 27-308 S135T): T1 sequence (P37321 27-308) with S109T

[3] = tested on: PER-producing P. aeruginosa clinical isolates; experiment: microbe, parasite or virus in culture; type: cell-based, Pseudomonas aeruginosa; conditions: for % resistance: share of isolates resistant
[4] = tested on: PAO1 transconjugants carrying blaPER-1 plasmids; experiment: Broth microdilution MIC, transconjugants and recipient PAO1-Rrif; type: cell-based; conditions: Pseudomonas aeruginosa
Recombinant PAO1 strains = experiment: Broth microdilution MIC, recombinant PAO1 strains carrying blaPER; type: cell-based; conditions: Pseudomonas aeruginosa
PER-1 [5] = target: T1, PER-1; experiment: Steady-state enzyme kinetics, purified PER-1; type: biochemical; conditions: PER-1 vs PER-4
PER-4 [6] = target: T2, PER-4; experiment: Steady-state enzyme kinetics, purified PER-4; type: biochemical; conditions: room temperature, 1×PBS pH 7.2
[7] = Pseudomonas aeruginosa, isolate PA268
[8] = Pseudomonas aeruginosa, isolate PA272
[9] = Pseudomonas aeruginosa, isolate PA282
[10] = Pseudomonas aeruginosa, isolate PA975
[11] = Pseudomonas aeruginosa, isolate PA1017
[12] = Pseudomonas aeruginosa, isolate PA1018
[13] = PAO1, transconjugant PAO1/pPA268
[14] = PAO1, transconjugant PAO1/pPA272
[15] = PAO1, transconjugant PAO1/pPA282
[16] = PAO1, transconjugant PAO1/pPA975
[17] = PAO1, transconjugant PAO1/pPA1017
[18] = PAO1, transconjugant PAO1/pPA1018
[19] = PAO1, strain PAO1-pGK1900 (empty vector)

C[C@]1(Cn2ccnn2)[C@H](C(=O)O)N2C(=O)C[C@H]2S1(=O)=O [Tazobactam]
IC50 (PER-1 [1]): 0.363 µM | Ki (PER-1 [1]): 0.32 ± 0.0131 µM | IC50 (PER-4 [2]): 1090 µM | Ki (PER-4 [2]): 707 ± 97.7 µM | fold higher IC50 value against PER-4 than against wild-type PER-1 (PER-4 [2]): ~3002 fold

colistin [CST]
MIC50 ([3]; 56 PER-producing PA strains): 2 µg/mL | MIC90 ([3]; 56 PER-producing PA strains): 2 µg/mL | MIC range ([3]; 56 PER-producing PA strains): 0.25 to 2 µg/mL | % resistance ([3]; 56 PER-producing PA strains): 0.00%

C[C@@H](O)[C@H]1C(=O)N2C(C(=O)O)=C(S[C@@H]3CN[C@H](C(=O)N(C)C)C3)[C@H](C)[C@H]12 [MEM, meropenem]
% resistance ([3]; 56 PER-producing PA strains): 91.07% | MIC50 ([3]; Pseudomonas aeruginosa): 16 µg/mL (≈ 41.7 µM) | MIC90 ([3]; Pseudomonas aeruginosa): 64 µg/mL (≈ 167 µM) | MIC [3, 7]: 16 µg/mL (≈ 41.7 µM) | MIC [3, 8]: 32 µg/mL (≈ 83.4 µM) | MIC [3, 9]: 32 µg/mL (≈ 83.4 µM) | MIC [3, 10]: 16 µg/mL (≈ 41.7 µM) | MIC [3, 11]: 16 µg/mL (≈ 41.7 µM) | MIC [3, 12]: 32 µg/mL (≈ 83.4 µM) | MIC [4, 13]: 1 µg/mL (≈ 2.61 µM) | MIC [4, 14]: 1 µg/mL (≈ 2.61 µM) | MIC [4, 15]: 1 µg/mL (≈ 2.61 µM) | MIC [4, 16]: 2 µg/mL (≈ 5.22 µM) | MIC [4, 17]: 1 µg/mL (≈ 2.61 µM) | MIC [4, 18]: 32 µg/mL (≈ 83.4 µM) | MIC (Recombinant PAO1 strains; PAO1): 0.5 µg/mL | MIC (Recombinant PAO1 strains; [19]): 1 µg/mL | MIC (Recombinant PAO1 strains; PAO1, strain PAO1-pGK1900-PER1): 1 µg/mL | MIC (Recombinant PAO1 strains; PAO1, strain PAO1-pGK1900-PER4): 1 µg/mL

O=C(O)[C@H]1/C(=C/CO)O[C@@H]2CC(=O)N21 [Clavulanic acid]
IC50 (PER-1 [1]): 0.027 µM | Ki (PER-1 [1]): 0.024 ± 0.0004 µM | IC50 (PER-4 [2]): 0.152 µM | Ki (PER-4 [2]): 0.099 ± 0.0006 µM | fold higher IC50 value against PER-4 than against wild-type PER-1 (PER-4 [2]): ~5.6 fold

O=C(Cc1cccs1)N[C@@H]1C(=O)N2C(C(=O)O)=C(/C=C/c3ccc([N+](=O)[O-])cc3[N+](=O)[O-])CS[C@H]12 [Nitrocefin]
fold lower nitrocefin hydrolysis activity of PER-1 than PER-4 (PER-1 [5]): ~1.7 fold | Km (PER-4 [6]): 18.5 µM | kcat (PER-4 [6]): 224.03 s⁻¹

NC(=O)[C@@H]1CC[C@@H]2CN1C(=O)N2OS(=O)(=O)O [Avibactam]
IC50 (PER-1 [1]): 0.217 µM | Ki (PER-1 [1]): 0.191 ± 0.004 µM | IC50 (PER-4 [2]): 729 µM | Ki (PER-4 [2]): 473 ± 29.2 µM | fold higher IC50 value against PER-4 than against wild-type PER-1 (PER-4 [2]): ~3359 fold

CC(C)(O/N=C(\C(=O)N[C@@H]1C(=O)N2C(C(=O)[O-])=C(C[n+]3ccccc3)CS[C@H]12)c1csc(N)n1)C(=O)O [CAZ, ceftazidime]
MIC range ([3]; 56 PER-producing PA strains): >128 µg/mL | % resistance ([3]; 56 PER-producing PA strains): 100.00% | % resistance ([3]; 56 PER-producing PA strains, listed as ceftazidime): 100% | MIC50 ([3]; Pseudomonas aeruginosa): > 128 µg/mL | MIC90 ([3]; Pseudomonas aeruginosa): > 128 µg/mL | MIC [3, 7]: > 128 µg/mL | MIC [3, 8]: > 128 µg/mL | MIC [3, 9]: > 128 µg/mL | MIC [3, 10]: > 128 µg/mL | MIC [3, 11]: > 128 µg/mL | MIC [3, 12]: > 128 µg/mL | MIC [4, 13]: > 128 µg/mL | MIC [4, 14]: > 128 µg/mL | MIC [4, 15]: > 128 µg/mL | MIC [4, 16]: 128 µg/mL (≈ 234 µM) | MIC [4, 17]: > 128 µg/mL | MIC [4, 18]: > 128 µg/mL | MIC (Recombinant PAO1 strains; PAO1): 1 µg/mL | MIC (Recombinant PAO1 strains; [19]): 2 µg/mL | MIC (Recombinant PAO1 strains; PAO1, strain PAO1-pGK1900-PER1): > 128 µg/mL | MIC (Recombinant PAO1 strains; PAO1, strain PAO1-pGK1900-PER4): > 128 µg/mL | Km (PER-4 [6]): 726 µM | kcat (PER-4 [6]): 607.66 s⁻¹
